This is an account of results in patent US20260146046A1, “BICYCLIC FERROPORTIN INHIBITORS” (Vifor (International) AG, priority 2022, published 2026).

pIC50: −log10 of the molar value. Where a name gives a salt, the structure may show the parent alone.

The term pIC50 denotes the negative decadic logarithm of the IC50, by convention in mol/L.

The target in this assay is T1, ferroportin (Fpn) (Mus musculus, UniProt Q9JHI9).
T1 construct: endogenous in cells; host or cells: J774 mouse macrophage cell line, induced with Fe(III)NTA
T1 sequence (Q9JHI9 1-570): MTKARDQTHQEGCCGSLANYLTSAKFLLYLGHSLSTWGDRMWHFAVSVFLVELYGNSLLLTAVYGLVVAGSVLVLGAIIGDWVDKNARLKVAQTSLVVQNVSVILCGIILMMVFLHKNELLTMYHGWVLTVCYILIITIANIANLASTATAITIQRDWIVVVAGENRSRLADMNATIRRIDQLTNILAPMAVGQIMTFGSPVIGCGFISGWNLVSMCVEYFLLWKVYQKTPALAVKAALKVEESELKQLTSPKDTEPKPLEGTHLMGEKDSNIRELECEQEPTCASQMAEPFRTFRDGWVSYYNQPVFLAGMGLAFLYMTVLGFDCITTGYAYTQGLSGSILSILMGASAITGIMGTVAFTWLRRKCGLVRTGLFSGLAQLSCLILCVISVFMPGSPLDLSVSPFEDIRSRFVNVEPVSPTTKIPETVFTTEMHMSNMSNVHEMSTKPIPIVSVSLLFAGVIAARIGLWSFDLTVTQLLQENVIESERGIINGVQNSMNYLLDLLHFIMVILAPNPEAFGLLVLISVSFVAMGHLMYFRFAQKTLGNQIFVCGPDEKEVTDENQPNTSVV
Kind of assay: Hepcidin Internalization Assay (J774). The following applies: J774 cells, 25 nM TMR-hepcidin, 2 hours; average of multiple measurements; read-out: Average (AVE) IC50 of Fpn inhibitors in the hepcidin internalization assay. It counts as cell-based. The text has this:
This cellular assay allows quantification of the binding of hepcidin to ferroportin (Fpn) through microscopic detection of internalization of a fluorescently labeled hepcidin into J774 cells. […] Binding of hepcidin to Fpn triggers internalization and degradation of both hepcidin and Fpn. […] Therefore, microscopic detection of cell-associated TMR fluorescence is a measure of hepcidin binding to Fpn and internalization of hepcidin and Fpn. If TMR-hepcidin is prevented from binding to Fpn, cellular TMR fluorescence remains low (Durrenberger et al, 2013). The effect of small molecular weight Fpn inhibitor compounds in this assay was evaluated in vitro as described below. […] Cat. 655090) and grown at 37° C. with 5% CO2. After overnight incubation, cells were washed 3 times with pre-warmed DMEM w/o phenol red, 30 μl/well of DMEM w/o phenol red was added after the final wash and 10 μl/well of dilution series of test compounds were added in triplicates. […] Cells were incubated in a total volume of 50 μl at 37° C. with 5% CO2 for 2 hours, then Hoechst 33342 dye was added to a final concentration of 0.5 μg/ml to stain nuclei and further incubated for 10 min. at 37° C. with 5% CO2. […] After removal of the paraformaldehyde solution, cells were washed 3 times with PBS leaving 100 μl per well and the plates were sealed with foil plate seal. […] The acquired image data was analysed with the […] analysis software. […] IC50 values were calculated with the Sum(Mean) raw data using “log(inhibitor) vs. response” curve fitting of Prism 5 software (GraphPad Software Inc., version 5.02). For each data set the fit of the “log(inhibitor) vs. response (three parameters)” model was compared to the fit of the “log(inhibitor) vs. response-Variable slope (four parameters)” model and the IC50 data of the preferred model was used.
Consider `COc1cccc(Cn2c(CCNCCc3nc4c(NCc5ncccc5F)nccc4o3)nc3ccccc32)c1` [Example Compound No. 11, N-((3-fluoropyridin-2-yl)methyl)-2-(2-((2-(1-(3-methoxybenzyl)-1H-benzo[d]-imidazol-2-yl)ethyl)amino)ethyl)oxazolo[4,5-c]pyridin-4-amine], for which the pIC50 is 8.30.
`Fc1cccnc1CNc1nccc2oc(CCNCCc3nc4ccccc4n3Cc3cccc(Cl)c3)nc12` [Example Compound No. 12, 2-(2-((2-(1-(3-chlorobenzyl)-1H-benzo[d]imidazol-2-yl)ethyl)amino)ethyl)-N-((3-fluoropyridin-2-yl)methyl)oxazolo[4,5-c]pyridin-4-amine]: the pIC50 was 7.55.
In the case of `Fc1cccnc1CNc1nccc2oc(CCNCCc3nc4cc5c(cc4n3CC3CC3)OCCO5)nc12` [Example Compound No. 13, 2-(2-((2-(1-(cyclopropylmethyl)-6,7-dihydro-1H-[1,4]dioxino[2′,3′:4,5]benzo[1,2-d]-imidazol-2-yl)ethyl)amino)ethyl)-N-((3-fluoropyridin-2-yl)methyl)oxazolo[4,5-c]pyridin-4-amine], the pIC50 is 8.30.
To `CN(C)CCn1c(CCNCCc2nc3c(NCc4ncccc4F)nccc3o2)nc2cc3c(cc21)OCCO3` [Example Compound No. 14, 2-(2-((2-(1-(2-(dimethylamino)ethyl)-6,7-dihydro-1H-[1,4]dioxino[2′,3′:4,5]benzo[1,2-d]imidazol-2-yl)ethyl)amino)ethyl)-N-((3-fluoropyridin-2-yl)methyl)oxazolo[4,5-c]pyridin-4-amine] belongs 6.09; to `Fc1cccnc1CNc1nccc2oc(CCNCCc3nc4ccccc4n3Cc3ccccn3)nc12` [Example Compound No. 15, N-((3-fluoropyridin-2-yl)methyl)-2-(2-((2-(1-(pyridin-2-ylmethyl)-1H-benzo[d]imidazol-2-yl)ethyl)amino)ethyl)oxazolo[4,5-c]pyridin-4-amine], 5.02; to `Fc1cccnc1CNc1nccc2oc(CCNCCc3nc4ccccc4n3CCc3ccccc3)nc12` [Example Compound No. 16, N-((3-fluoropyridin-2-yl)methyl)-2-(2-((2-(1-phenethyl-1H-benzo[d]imidazol-2-yl)ethyl)amino)ethyl)oxazolo[4,5-c]pyridin-4-amine], 4.40.
As to `Fc1cccnc1CNc1nccc2oc(CCNCCc3nc4ccccc4n3-c3ccccc3)nc12` [Example Compound No. 17, N-((3-fluoropyridin-2-yl)methyl)-2-(2-((2-(1-phenyl-1H-benzo[d]imidazol-2-yl)ethyl)amino)ethyl)oxazolo[4,5-c]pyridin-4-amine], the pIC50 was 7.60.
Turning to `CN1CCN(CCn2c(CCNCCc3nc4c(NCc5ncccc5F)nccc4o3)nc3cc4c(cc32)OCCO4)CC1` [Example Compound No. 18, N-((3-fluoropyridin-2-yl)methyl)-2-(2-((2-(1-(2-(4-methylpiperazin-1-yl)ethyl)-6,7-dihydro-1H-[1,4]dioxino[2′,3′:4,5]benzo[1,2-d]imidazol-2-yl)ethyl)amino)ethyl)oxazolo[4,5-c]pyridin-4-amine], the pIC50 was 4.70.
As to `CCn1c(CCNCCc2nc3c(NCc4ncccc4F)nccc3o2)nc2ccccc21` [Example Compound No. 19, 2-(2-((2-(1-ethyl-1H-benzo[d]imidazol-2-yl)ethyl)amino)ethyl)-N-((3-fluoropyridin-2-yl)methyl)oxazolo[4,5-c]pyridin-4-amine], the pIC50 is 7.74.
`CN(C)CCn1c(CCNCCc2nc3c(NCc4ncccc4F)nccc3o2)nc2ccccc21` [Example Compound No. 20, 2-(2-((2-(1-(2-(dimethylamino)ethyl)-1H-benzo[d]imidazol-2-yl)ethyl)amino)ethyl)-N-((3-fluoropyridin-2-yl)methyl)oxazolo[4,5-c]pyridin-4-amine]: the pIC50 is 4.70.
As for `CCn1c(CCNCCc2nc3c(NCc4ncccc4F)nccc3o2)nc2cc3c(cc21)OCCO3` [Example Compound No. 21, 2-(2-((2-(1-ethyl-6,7-dihydro-1H-[1,4]dioxino[2′,3′:4,5]benzo[1,2-d]imidazol-2-yl)ethyl)amino)ethyl)-N-((3-fluoropyridin-2-yl)methyl)oxazolo[4,5-c]pyridin-4-amine formate], the pIC50 was 7.51.
For `Cn1c(CCNCCc2nc3c(NCc4ncccc4F)nccc3o2)nc2ccccc21` [Example Compound No. 22, N-((3-fluoropyridin-2-yl)methyl)-2-(2-((2-(1-methyl-1H-benzo[d]imidazol-2-yl)ethyl)amino)ethyl)oxazolo[4,5-c]pyridin-4-amine formate], the pIC50 is 7.40.
Regarding `Fc1cccnc1CNc1nccc2oc(CCNCCc3nc4cc5c(cc4n3-c3ccccc3)OCCO5)nc12` [Example Compound No. 23, N-((3-fluoropyridin-2-yl)methyl)-2-(2-((2-(1-phenyl-6,7-dihydro-1H-[1,4]dioxino[2′,3′:4,5]benzo[1,2-d]imidazol-2-yl)ethyl)amino)ethyl)oxazolo[4,5-c]pyridin-4-amine formate], the pIC50 was 7.74.
